Data reported in patent publication US10004701B2, “Methods and compositions for treating infection” (UNIVERSITY OF ROCHESTER, priority 2012, dated 2018).
Structures can show the parent of a compound that is named as a salt. Where two headings read alike, the source gives them in different places.

How the values were obtained:
Experiment in all cases: AK assay 384-well format, Prestwick library screening
[1] = test system: S. aureus strain USA300-0114; assay type: cell-based, Staphylococcus aureus; settings: 50 μM final drug concentration; for fold induction at 50 µM: Staphylococcus aureus, USA300, 3 h
P. aeruginosa = assay type: cell-based, Pseudomonas aeruginosa; settings: 50 μM final drug concentration; for fold induction at 50 µM: Pseudomonas aeruginosa, 3 h
K. pneumoniae = assay type: cell-based, Klebsiella pneumoniae; settings: 50 μM final drug concentration; for fold induction at 50 µM: Klebsiella pneumoniae, 3 h
E. coli = assay type: cell-based, Escherichia coli; settings: 50 μM final drug concentration; for fold induction at 50 µM: Escherichia coli, 3 h
[2] = test system: A. baumannii strain 98-37-09; assay type: cell-based, Acinetobacter baumannii; settings: 50 μM final drug concentration; for fold induction at 50 µM: Acinetobacter baumannii, 983709, 3 h
E. cloacae = assay type: cell-based, Enterobacter cloacae; settings: 50 μM final drug concentration; for fold induction at 50 µM: Enterobacter cloacae, 3 h
E. faecium = assay type: cell-based, Enterococcus faecium; settings: 50 μM final drug concentration; for fold induction at 50 µM: Enterococcus faecium, 3 h
[3] = planktonic, cutoff for positive-scoring molecules 3-fold increase, read-out: AK-based Prestwick Library Screening Results, S. aureus (fold increase in extracellular AK activity)
[4] = planktonic, cutoff for positive-scoring molecules 3-fold increase, read-out: AK-based Prestwick Library Screening Results, P. aeruginosa (fold increase in extracellular AK activity)
[5] = planktonic, cutoff for positive-scoring molecules 3-fold increase, read-out: AK-based Prestwick Library Screening Results, K. pneumoniae (fold increase in extracellular AK activity)
[6] = planktonic, cutoff for positive-scoring molecules 3-fold increase, read-out: AK-based Prestwick Library Screening Results, E. coli (fold increase in extracellular AK activity)
[7] = planktonic, cutoff for positive-scoring molecules 3-fold increase, read-out: AK-based Prestwick Library Screening Results, A. baumannii (fold increase in extracellular AK activity)
[8] = planktonic, cutoff for positive-scoring molecules 3-fold increase, read-out: AK-based Prestwick Library Screening Results, E. cloacae (fold increase in extracellular AK activity)
[9] = planktonic, cutoff for positive-scoring molecules 3-fold increase, read-out: AK-based Prestwick Library Screening Results, E. faecium (fold increase in extracellular AK activity)
[10] = 384-well format, cutoff for positive-scoring molecules 3-fold increase, read-out: AK-based Prestwick Library Screening Results, S. aureus (increase in extracellular AK activity)
[11] = 384-well format, cutoff for positive-scoring molecules 3-fold increase, read-out: AK-based Prestwick Library Screening Results, P. aeruginosa (increase in extracellular AK activity)
[12] = 384-well format, cutoff for positive-scoring molecules 3-fold increase, read-out: AK-based Prestwick Library Screening Results, K. pneumoniae (increase in extracellular AK activity)
[13] = 384-well format, cutoff for positive-scoring molecules 3-fold increase, read-out: AK-based Prestwick Library Screening Results, E. coli (increase in extracellular AK activity)
[14] = 384-well format, cutoff for positive-scoring molecules 3-fold increase, read-out: AK-based Prestwick Library Screening Results, A. baumannii (increase in extracellular AK activity)
[15] = 384-well format, cutoff for positive-scoring molecules 3-fold increase, read-out: AK-based Prestwick Library Screening Results, E. cloacae (increase in extracellular AK activity)
[16] = 384-well format, cutoff for positive-scoring molecules 3-fold increase, read-out: AK-based Prestwick Library Screening Results, E. faecium (increase in extracellular AK activity)
[17] = cutoff for positive-scoring molecules 3-fold increase

## CN1CCC(=C2c3ccccc3Sc3ccccc32)CC1 [Pimethixene maleate]
[1]; planktonic S. aureus, 384-well, […], read-out: AK-based Prestwick Library Screening Results: S. aureus (increase in extracellular AK activity)
  fold induction at 50 µM: 0.9
P. aeruginosa; planktonic P. aeruginosa, 384-well, […], read-out: AK-based Prestwick Library Screening Results: P. aeruginosa (increase in extracellular AK activity)
  fold induction at 50 µM: 1.1
K. pneumoniae; planktonic K. pneumoniae, 384-well, […], read-out: AK-based Prestwick Library Screening Results: K. pneumoniae (increase in extracellular AK activity)
  fold induction at 50 µM: 1.2
E. coli; planktonic E. coli, 384-well, […], read-out: AK-based Prestwick Library Screening Results: E. coli (increase in extracellular AK activity)
  fold induction at 50 µM: 1.4
[2]; planktonic A. baumannii, 384-well, […], read-out: AK-based Prestwick Library Screening Results: A. baumannii (increase in extracellular AK activity)
  fold induction at 50 µM: 1.1
E. cloacae; planktonic E. cloacae, 384-well, […], read-out: AK-based Prestwick Library Screening Results: E. cloacae (increase in extracellular AK activity)
  fold induction at 50 µM: 1.4
E. faecium; planktonic E. faecium, 384-well, […], read-out: AK-based Prestwick Library Screening Results: E. faecium (increase in extracellular AK activity)
  fold induction at 50 µM: 1.1

## COc1ccc2[nH]c3c(c2c1)CCN=C3C [Methoxy-6-harmalan]
[1]; planktonic, […]
  AK-based Prestwick Library Screening Results, S. aureus (fold increase in extracellular AK activity): 0.8
P. aeruginosa; planktonic, […]
  AK-based Prestwick Library Screening Results, P. aeruginosa (fold increase in extracellular AK activity): 1.2
K. pneumoniae; planktonic, […]
  AK-based Prestwick Library Screening Results, K. pneumoniae (fold increase in extracellular AK activity): 1.0
E. coli; planktonic, […]
  AK-based Prestwick Library Screening Results, E. coli (fold increase in extracellular AK activity): 1.4
[2]; planktonic, […]
  AK-based Prestwick Library Screening Results, A. baumannii (fold increase in extracellular AK activity): 1.3
E. cloacae; planktonic, […]
  AK-based Prestwick Library Screening Results, E. cloacae (fold increase in extracellular AK activity): 1.4
E. faecium; planktonic, […]
  AK-based Prestwick Library Screening Results, E. faecium (fold increase in extracellular AK activity): 1.0

## CC1(C)[C@@H](OC(=O)CCC(=O)O)CC[C@]2(C)[C@H]3C(=O)C=C4[C@@H]5C[C@@](C)(C(=O)O)CC[C@]5(C)CC[C@@]4(C)[C@]3(C)CC[C@@H]12 [Carbenoxolone disodium salt]
[1]; [3]
  fold induction at 50 µM: 1.6
P. aeruginosa; [4]
  fold induction at 50 µM: 0.9
K. pneumoniae; [5]
  fold induction at 50 µM: 0.7
E. coli; [6]
  fold induction at 50 µM: 0.8
[2]; [7]
  fold induction at 50 µM: 1.1
E. cloacae; [8]
  fold induction at 50 µM: 1.4
E. faecium; [9]
  fold induction at 50 µM: 0.9

## COc1cc(C)nc(-n2nc(C)cc2OC)n1 [Epirizole]
[1]; [10]
  fold induction at 50 µM: 2.2
P. aeruginosa; [11]
  fold induction at 50 µM: 0.8
K. pneumoniae; [12]
  fold induction at 50 µM: 0.7
E. coli; [13]
  fold induction at 50 µM: 1
[2]; [14]
  fold induction at 50 µM: 0.9
E. cloacae; [15]
  fold induction at 50 µM: 1.2
E. faecium; [16]
  fold induction at 50 µM: 0.8

## CC(=O)[C@H]1CC[C@H]2[C@@H]3CC=C4C[C@@H](O)CC[C@]4(C)[C@H]3CC[C@]12C [Pregnenolone]
[1]; planktonic, […]
  AK-based Prestwick Library Screening Results, S. aureus (fold increase in extracellular AK activity): 1.1
P. aeruginosa; planktonic, […]
  AK-based Prestwick Library Screening Results, P. aeruginosa (fold increase in extracellular AK activity): 1.1
K. pneumoniae; planktonic, […]
  AK-based Prestwick Library Screening Results, K. pneumoniae (fold increase in extracellular AK activity): 1.1
E. coli; planktonic, […]
  AK-based Prestwick Library Screening Results, E. coli (fold increase in extracellular AK activity): 1.4
[2]; planktonic, […]
  AK-based Prestwick Library Screening Results, A. baumannii (fold increase in extracellular AK activity): 1.3
E. cloacae; planktonic, […]
  AK-based Prestwick Library Screening Results, E. cloacae (fold increase in extracellular AK activity): 1.5
E. faecium; planktonic, […]
  AK-based Prestwick Library Screening Results, E. faecium (fold increase in extracellular AK activity): 1.1

## CC(=O)/N=c1/sc(S(N)(=O)=O)nn1C [Methazolamide]
[1]; [3]
  fold induction at 50 µM: 0.6
P. aeruginosa; [4]
  fold induction at 50 µM: 0.6
K. pneumoniae; [5]
  fold induction at 50 µM: 0.5
E. coli; [6]
  fold induction at 50 µM: 0.5
[2]; [7]
  fold induction at 50 µM: 0.5
E. cloacae; [8]
  fold induction at 50 µM: 0.7
E. faecium; [9]
  fold induction at 50 µM: 1.5

## Tyloxapol
[1]; [17]
  AK-based Prestwick Library Screening Results, S. aureus (fold increase in extracellular AK activity): 1.4
P. aeruginosa; [17]
  AK-based Prestwick Library Screening Results, P. aeruginosa (fold increase in extracellular AK activity): 1.2
K. pneumoniae; [17]
  AK-based Prestwick Library Screening Results, K. pneumoniae (fold increase in extracellular AK activity): 1.5
E. coli; […]
  AK-based Prestwick Library Screening Results, E. coli (fold increase in extracellular AK activity): 1.4
[2]; [17]
  AK-based Prestwick Library Screening Results, A. baumannii (fold increase in extracellular AK activity): 1.3
E. cloacae; [17]
  AK-based Prestwick Library Screening Results, E. cloacae (fold increase in extracellular AK activity): 1.2
E. faecium; [17]
  AK-based Prestwick Library Screening Results, E. faecium (fold increase in extracellular AK activity): 1.0

## CCC1(c2ccc(N)cc2)CCC(=O)NC1=O (stereo not drawn) [Glutethimide, para-amino]
[1]; 384-well format, […]
  AK-based Prestwick Library Screening Results, S. aureus (increase in extracellular AK activity): 0.5
P. aeruginosa; 384-well format, […]
  AK-based Prestwick Library Screening Results, P. aeruginosa (increase in extracellular AK activity): 0.6
K. pneumoniae; 384-well format, […]
  AK-based Prestwick Library Screening Results, K. pneumoniae (increase in extracellular AK activity): 0.6
E. coli; 384-well format, […]
  AK-based Prestwick Library Screening Results, E. coli (increase in extracellular AK activity): 0.5
[2]; 384-well format, […]
  AK-based Prestwick Library Screening Results, A. baumannii (increase in extracellular AK activity): 0.6
E. cloacae; 384-well format, […]
  AK-based Prestwick Library Screening Results, E. cloacae (increase in extracellular AK activity): 0.5
E. faecium; 384-well format, […]
  AK-based Prestwick Library Screening Results, E. faecium (increase in extracellular AK activity): 0.9

## CCCCNc1cc(C(=O)O)cc(S(N)(=O)=O)c1Oc1ccccc1 [Bumetanide]
[1]; [10]
  fold induction at 50 µM: 0.7
P. aeruginosa; [11]
  fold induction at 50 µM: 0.8
K. pneumoniae; [12]
  fold induction at 50 µM: 0.7
E. coli; [13]
  fold induction at 50 µM: 0.9
[2]; [14]
  fold induction at 50 µM: 0.8
E. cloacae; [15]
  fold induction at 50 µM: 1.3
E. faecium; [16]
  fold induction at 50 µM: 0.9

## CCOC(=O)O[C@]1(C(=O)COC(=O)CC)CC[C@H]2[C@@H]3CCC4=CC(=O)C=C[C@]4(C)[C@H]3[C@@H](O)C[C@@]21C [Prednicarbate]
[1]; cutoff for positive-scoring molecules 3-fold increase, read-out: AK-based Prestwick Library Screening Results, S. aureus (fold increase in extracellular AK activity)
  fold induction at 50 µM: 0.4
P. aeruginosa; cutoff for positive-scoring molecules 3-fold increase, read-out: AK-based Prestwick Library Screening Results, P. aeruginosa (fold increase in extracellular AK activity)
  fold induction at 50 µM: 0.4
K. pneumoniae; cutoff for positive-scoring molecules 3-fold increase, read-out: AK-based Prestwick Library Screening Results, K. pneumoniae (fold increase in extracellular AK activity)
  fold induction at 50 µM: 0.5
E. coli; cutoff for positive-scoring molecules 3-fold increase, read-out: AK-based Prestwick Library Screening Results, E. coli (fold increase in extracellular AK activity)
  fold induction at 50 µM: 0.4
[2]; cutoff for positive-scoring molecules 3-fold increase, read-out: AK-based Prestwick Library Screening Results, A. baumannii (fold increase in extracellular AK activity)
  fold induction at 50 µM: 0.4
E. cloacae; cutoff for positive-scoring molecules 3-fold increase, read-out: AK-based Prestwick Library Screening Results, E. cloacae (fold increase in extracellular AK activity)
  fold induction at 50 µM: 0.3
E. faecium; cutoff for positive-scoring molecules 3-fold increase, read-out: AK-based Prestwick Library Screening Results, E. faecium (fold increase in extracellular AK activity)
  fold induction at 50 µM: 0.9

## C[N+]1(C)CCC(OC(=O)C(O)(c2ccccc2)C2CCCC2)C1 (stereo not drawn) [Glycopyrrolate]
[1]; [3]
  fold induction at 50 µM: 0.7
P. aeruginosa; [4]
  fold induction at 50 µM: 0.9
K. pneumoniae; [5]
  fold induction at 50 µM: 0.8
E. coli; [6]
  fold induction at 50 µM: 0.9
[2]; [7]
  fold induction at 50 µM: 0.8
E. cloacae; [8]
  fold induction at 50 µM: 1.1
E. faecium; [9]
  fold induction at 50 µM: 0.9

## COc1ccc2[nH]cc(CCNC(C)=O)c2c1 [Melatonin]
[1]; planktonic, cutoff for positive 3-fold increase, read-out: AK-based Prestwick Library Screening Results, S. aureus (fold increase in extracellular AK activity)
  fold induction at 50 µM: 1.3
P. aeruginosa; planktonic, cutoff for positive 3-fold increase, read-out: AK-based Prestwick Library Screening Results, P. aeruginosa (fold increase in extracellular AK activity)
  fold induction at 50 µM: 1.1
K. pneumoniae; planktonic, cutoff for positive 3-fold increase, read-out: AK-based Prestwick Library Screening Results, K. pneumoniae (fold increase in extracellular AK activity)
  fold induction at 50 µM: 0.8
E. coli; planktonic, cutoff for positive 3-fold increase, read-out: AK-based Prestwick Library Screening Results, E. coli (fold increase in extracellular AK activity)
  fold induction at 50 µM: 0.9
[2]; planktonic, cutoff for positive 3-fold increase, read-out: AK-based Prestwick Library Screening Results, A. baumannii (fold increase in extracellular AK activity)
  fold induction at 50 µM: 1.2
E. cloacae; planktonic, cutoff for positive 3-fold increase, read-out: AK-based Prestwick Library Screening Results, E. cloacae (fold increase in extracellular AK activity)
  fold induction at 50 µM: 1.4
E. faecium; planktonic, cutoff for positive 3-fold increase, read-out: AK-based Prestwick Library Screening Results, E. faecium (fold increase in extracellular AK activity)
  fold induction at 50 µM: 1
